US20260027066A1, “NANOSCALE MATRIMERES” (THE BOARD OF TRUSTEES OF THE UNIVERSITY OF ILLINOIS, priority 2022, published 2026)

Legend:
[1] = system: FN^+ matrimeres secreted from MSCs; experiment: Effects of pharmacological modulators on FN+ matrimere secretion from MSCs; format: cell-based, mouse; details: 24 hours in culture with drug vs DMSO control
Experimental: FIGS. 6A-6C show the effects of pharmacological modulators on FN^+ matrimere secretion. (FIG. 6A) Overview of the potential biogenesis pathway for FN^+ matrimeres, known regulators, and their pharmacological modulators. (FIG. 6B) Total number of nanostructures per MSC after 24 hours in culture with drugs or DMSO control. (FIG. 6C) Percent of FN^+ particles in MSC-secreted nanostructures. (FIG. 6D) Total number of FN^+ particles per cell. *p<0.05. n=3 experiments. p-values from one-way ANOVA followed by Tukey's post-test. All data are shown as mean±s.d. BMS-P5 (CAS No. 1550371-22-6); Bafilomycin-A1 (BafA1, CAS No. 88899-55-2); curcumin analog C1 (CA-C1, CAS No. 39777-61-2); ML-SA5 (CAS No. 2418670-70-7).
For excess DNA to be released from the nucleus, arginine in histone undergoes modification from positive to neutral charge via citrullination, which is mediated by peptidylarginine deiminase (PAD) (FIG. 6A). […] Most cells (>90%) remained viable after drug treatment. Thus, autophagy and lysosome are potential mediators of FN^+ matrimere biogenesis.

[2] = system: human umbilical vein endothelial cell (HUVEC) monolayer; experiment: Transendothelial electrical resistance (TEER) assay of endothelial monolayer after LPS treatment; format: cell-based; details: cilengitide 200 nM
Experimental: (FIG. 3A) TEER kinetics of the human umbilical vein endothelial cell (HUVEC) monolayer showing the rescue of LPS (1 μM)—compromised TEER by the CD63-depleted fraction of MSC-secreted nanostructures. (FIG. 3B) Changes in TEER from 6.5 hours to 24 hours after washing out LPS followed by treatment. ****p<0.0001. n=3 experiments. p-values were derived from one-way ANOVA followed by Dunnett's T3 post-test. All data are shown as mean±s.d.
FIG. 8A-8B show the effects of reconstituted FN-DNA matrimeres on the recovery of TEER after 6 hours LPS (1 μM) treatment in vitro. (FIG. 8A) TEER kinetics. (FIG. 8B) Percentage of TEER recovery. n=3 experiments.
The effect of depleting different mouse MSC-secreted nanostructure subpopulations on their ability to reverse hyperpermeability of the endothelial cell monolayer after LPS treatment in vitro was assessed by a transendothelial electrical resistance (TEER) assay. TEER was decreased with LPS over 6 hours, while TEER was only partially rescued after washing out LPS in 24 hours. […] Competitive inhibition of RGD-binding integrins by cilengitide (cyclic RGD, 200 nM) impaired the ability of CD63-depleted fraction to restore TEER (FIG. 3B). […]
It was subsequently determined whether in vitro reconstituted FN-DNA particles could restore permeability of the endothelial cell monolayer after LPS treatment. […]

Q: Which “FN^+ matrimeres secreted from MSCs” value [1] does the source give for `COc1cc(C(=O)N2C[C@H](N)CC[C@@H]2C)cc2nc(-c3cc4cccnc4n3CC3CC3)n(C)c12` [BMS-P5] here?
A: The value was “decreased”.

Q: `CN(C)S(=O)(=O)c1ccc(S(=O)(=O)Nc2cccc(Cl)c2N2CCCCC2)cc1` [ML-SA5, N′-[3-Chloro-2-(1-piperidinyl)phenyl]-N,N-dimethyl-1,4-benzenedisulfonamide] was tested. Which “FN^+ particle number per cell” value [1] did it give?
A: Its value is “significantly increased”.

Q: With `CO/C1=C\C(C)=C\[C@@H](C)[C@@H](O)[C@@H](C)C/C(C)=C/C=C/[C@H](OC)[C@@H]([C@@H](C)[C@@H](O)[C@H](C)[C@@]2(O)C[C@@H](O)[C@H](C)[C@@H](C(C)C)O2)OC1=O` [bafilomycin-A1] as the compound, how does the “FN^+ matrimeres secreted from MSCs” value [1] read?
A: The value was “decreased”.

Q: `CC(C)[C@H]1C(=O)N[C@@H](CCCN=C(N)N)C(=O)NCC(=O)N[C@@H](CC(=O)O)C(=O)N[C@H](Cc2ccccc2)C(=O)N1C` [cilengitide] was tested. Which “effect on ability of reconstituted FN-DNA particles to restore TEER” value [2] did it give?
A: The value was “partially impaired”.

Q: And the “effect on ability of CD63-depleted fraction to restore TEER” value ([2]; competitive inhibition of RGD-binding integrins)?
A: The value was “impaired”.

Q: With `COc1ccccc1/C=C/C(=O)/C=C/c1ccccc1OC` [curcumin analog C1, (1E,4E)-1,5-bis(2-methoxyphenyl)-1,4-pentadien-3-one] as the compound, how does the “FN^+ particle number per cell” value [1] read?
A: The value was “significantly increased”.
